# Positions of bridges follow the written chain, without caps; N, C: chain ends. Non-standard residues stand in square brackets, D forms with d. Residues, ends and D or L forms follow the SMILES beside them. *: point of attachment. Malonyl(2,2-Me2,histaminyl) = CC(C)(C(=O)NCCc1cnc[nH]1)C(=O)*; Ala(1H-tetrazol-5-yl) = N[C@@H](Cc1nnn[nH]1)C(=O)O; αMePhe(2-F) = C[C@](N)(Cc1ccccc1F)C(=O)O; αMeL = CC(C)C[C@](C)(N)C(=O)O; Nle = CCCC[C@H](N)C(=O)O; Aib = CC(C)(N)C(=O)O
# Assays:
# [1] = biological target: T1, human GLP2 receptor (Homo sapiens, UniProt O95838); test: cAMP accumulation assay, functional agonism of human GLP2 receptor; format: cell-based; conditions: HEK cells infected with human GLP2 receptor BacMam virus, HTRF cAMP; for Emax: HEK293, read-out: Human GLP-2R agonist cAMP Emax; for EC50: read-out: Human GLP-2R agonist cAMP pEC50 (converted)
# T1 construct: expressed in transfected cells; host or cells: HEK cells, BacMam virus transduction
# T1 sequence (O95838 1-553): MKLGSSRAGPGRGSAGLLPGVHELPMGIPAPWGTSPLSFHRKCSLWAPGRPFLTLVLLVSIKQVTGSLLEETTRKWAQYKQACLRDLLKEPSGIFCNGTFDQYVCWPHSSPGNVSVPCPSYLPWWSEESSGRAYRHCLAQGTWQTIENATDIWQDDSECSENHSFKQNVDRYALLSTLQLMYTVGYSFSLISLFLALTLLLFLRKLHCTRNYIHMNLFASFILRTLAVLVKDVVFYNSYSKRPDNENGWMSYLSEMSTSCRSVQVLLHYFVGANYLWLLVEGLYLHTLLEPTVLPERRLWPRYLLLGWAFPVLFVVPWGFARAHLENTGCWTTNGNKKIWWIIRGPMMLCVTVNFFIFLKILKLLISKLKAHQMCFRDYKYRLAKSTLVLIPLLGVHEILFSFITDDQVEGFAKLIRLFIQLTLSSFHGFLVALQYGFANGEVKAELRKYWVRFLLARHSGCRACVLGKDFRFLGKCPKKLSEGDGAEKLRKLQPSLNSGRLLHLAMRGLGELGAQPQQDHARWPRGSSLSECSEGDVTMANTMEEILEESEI
# How it was run: (§1)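 Agonist-driven cAMP production was quantified by homogeneous time-resolved fluorescence. Receptor expression in HEK cells came from a 24-hour BacMam infection, and cells were frozen ahead of the assay. Incubation lasted 45 min at 37° C in HBSS supplemented with 0.5 mM IBMX.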
# [2] = biological target: T2, human GLP1 receptor (Homo sapiens, UniProt P43220); test: cAMP accumulation assay, functional agonism of human GLP1 receptor; format: cell-based; conditions: HEK cells infected with human GLP1 receptor BacMam virus, HTRF cAMP; for Emax: HEK293, read-out: Human GLP-1R agonist cAMP Emax; for EC50: read-out: Human GLP-1R agonist cAMP pEC50 (converted)
# T2 construct: expressed in transfected cells; host or cells: HEK cells, BacMam virus transduction
# How it was run: as §1
# [3] = Stability of peptides in rat intestinal fluid (ratIF); conditions: Sprague Dawley, undiluted rat small intestinal fluid (ratIF)
# Procedure: Peptides were tested for in vitro stability in native intestinal fluid obtained from the rat small intestine. Rat Sprague Dawley Small Intestinal Fluid (ratIF) (from Biotrend art. no. RSD-SIF-MI-30ML, undiluted) was preincubated for 15 min at 37° C. and spiked with test and reference item working solutions. Experiments were conducted in duplicate in a non-serial manner. The total incubation volume per replicate was 150 μl. […] All samples and calibration standards (prepared in ratIF) were precipitated by addition of 300 μl precipitant (ACN / 2% acetic acid / 0.2% HFBA, (precipitation regent, PR)) containing internal standards (ISTD) to 150 μl sample. After incubation for 1 h at room temperature all samples were centrifuged for 10 min at 2,200×g (room temperature).
# [4] = Stability of peptides in Fasted-State Simulated Gastric Fluid (FaSSGF); format: in vitro ADME; conditions: FaSSGF with 0.1 mg/ml pepsin; t=30 mins, 37° C., pH 1.6, 0.1 mg/ml pepsin
# Procedure: Stability of peptides was tested in Fasted-State Simulated gastric Fluid (FaSSGF) prepared according to manufacturer's protocol (Biorelevant, art. no. FFF01). […] FaSSGF was pre-incubated for 15 min at 37° C. and spiked with test and reference item working solutions. Experiments were conducted in duplicate in a non-serial manner. The total incubation volume per replicate was 150 μl. […] All samples and calibration standards (prepared in FaSSGF) were precipitated by addition of 300 μl precipitant (ACN / 2% acetic acid / 0.2% HFBA, (precipitation regent, PR)) containing internal standards (ISTD) to 150 μl sample. After incubation for 1 h at room temperature all samples were centrifuged for 10 min at 2,200×g (room temperature).
# [5] = biological target: T3, mouse GLP2 receptor (Mus musculus, UniProt Q5IXF8); test: cAMP accumulation assay, functional agonism of mouse GLP2 receptor; format: cell-based; conditions: HEK cells transiently transfected with mouse GLP2 receptor, HTRF cAMP; for Emax: HEK293, read-out: Mouse GLP-2R agonist cAMP Emax; for EC50: read-out: Mouse GLP-2R agonist cAMP pEC50 (converted)
# T3 construct: expressed in transfected cells; host or cells: HEK cells, transient transfection with GeneJuice
# T3 sequence (Q5IXF8 1-512): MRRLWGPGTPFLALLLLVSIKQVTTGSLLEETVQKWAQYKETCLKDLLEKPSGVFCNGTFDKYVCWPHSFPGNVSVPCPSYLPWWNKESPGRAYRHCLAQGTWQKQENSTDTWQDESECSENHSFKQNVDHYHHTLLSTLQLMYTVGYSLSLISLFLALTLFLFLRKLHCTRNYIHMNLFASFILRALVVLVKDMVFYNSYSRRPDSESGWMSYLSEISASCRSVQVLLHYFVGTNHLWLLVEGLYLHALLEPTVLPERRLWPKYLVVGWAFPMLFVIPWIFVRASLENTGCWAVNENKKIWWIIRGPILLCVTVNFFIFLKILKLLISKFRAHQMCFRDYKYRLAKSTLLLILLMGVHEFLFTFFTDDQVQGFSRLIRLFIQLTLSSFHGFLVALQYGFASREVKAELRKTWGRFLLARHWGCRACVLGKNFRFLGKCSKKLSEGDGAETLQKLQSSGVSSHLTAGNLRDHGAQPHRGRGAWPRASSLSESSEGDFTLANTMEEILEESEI
# How it was run: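 pEC50 values come from four-parameter fits of HTRF cAMP signal, read after lysis and 1 h RT incubation. Compounds were incubated 45 min at 37 °C with previously frozen, transiently transfected HEK cells (8000/well) in HBSS containing 0.5 mM IBMX.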
# [6] = Stability of peptides in Fasted-State Simulated Intestinal Fluid (FaSSIF); format: in vitro ADME; conditions: FaSSIF with 10 mg/ml pancreatin; t=30 mins, 37° C., pH 6.5, 10 mg/ml pancreatin
# T2 sequence (P43220 24-463): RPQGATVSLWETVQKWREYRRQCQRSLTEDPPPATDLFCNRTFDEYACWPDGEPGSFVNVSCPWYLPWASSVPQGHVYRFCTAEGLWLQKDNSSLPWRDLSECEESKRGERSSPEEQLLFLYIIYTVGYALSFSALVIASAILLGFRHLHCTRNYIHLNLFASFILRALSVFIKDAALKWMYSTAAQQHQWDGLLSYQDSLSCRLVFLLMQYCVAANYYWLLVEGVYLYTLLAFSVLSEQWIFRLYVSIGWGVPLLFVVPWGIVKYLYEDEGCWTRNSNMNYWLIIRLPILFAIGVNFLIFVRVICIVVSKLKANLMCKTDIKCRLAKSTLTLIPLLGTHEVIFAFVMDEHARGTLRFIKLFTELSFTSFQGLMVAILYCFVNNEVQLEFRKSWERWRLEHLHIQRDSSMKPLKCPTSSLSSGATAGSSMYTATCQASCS
compound,measurement,setting,value
CCCC[C@H](NC(=O)[C@H](CCC(=O)O)NC(=O)[C@H](CC(=O)O)NC(=O)[C@H](CO)NC(=O)[C@](C)(Cc1ccccc1F)NC(=O)[C@H](CO)NC(=O)CNC(=O)[C@H](CC(=O)O)NC(=O)C(C)(C)NC(=O)[C@@H](N)Cc1c[nH]cn1)C(=O)N[C@H](Cc1ccccc1)C(=O)N[C@H]1CCC(=O)NCCCC[C@@H](C(=O)N[C@H]2CCC(=O)NCCCC[C@@H](C(=O)N[C@@H](CC(=O)O)C(=O)N[C@@H](Cc3ccccc3)C(=O)N[C@H](C(=O)N[C@H]3CCC(=O)NCCCC[C@@H](C(=O)N[C@H]4CCCCNC(=O)CC[C@@H](C(N)=O)NC(=O)[C@H]([C@@H](C)O)NC(=O)[C@H]([C@@H](C)CC)NC(=O)[C@H](CCCCN)NC4=O)NC(=O)[C@H]([C@@H](C)CC)NC(=O)[C@H](CC(C)C)NC(=O)[C@H](Cc4c[nH]c5ccccc45)NC3=O)[C@@H](C)CC)NC(=O)[C@H](C)NC(=O)[C@H](C)NC2=O)NC(=O)[C@H](CC(=O)O)NC(=O)[C@H](CC(C)C)NC(=O)[C@H]([C@@H](C)CC)NC1=O [Example 48],Emax,[1],101%
same,EC50,[1],0.00794 nM
same,Emax,[2],98.7%
same,EC50,[2],0.0158 nM
same,remaining at 0.5 h,[3],100%
same,remaining at 0.5 h,[4],100%
same,Emax,[5],103%
same,EC50,[5],0.0631 nM
same,remaining at 0.5 h,[6],80.2%
"CCCC[C@@H]1NC(=O)[C@H](CCC(=O)O)NC(=O)[C@@H](NC(=O)[C@H](CO)NC(=O)[C@](C)(Cc2ccccc2F)NC(=O)[C@H](CO)NC(=O)[C@@H](C)NC(=O)[C@H](CC(=O)O)NC(=O)C(C)(C)NC(=O)[C@@H](N)Cc2c[nH]cn2)CCCCNC(=O)C[C@@H](C(=O)N[C@@](C)(CC(C)C)C(=O)N[C@@H](CC(C)C)C(=O)N[C@@H](CC(=O)O)C(=O)N[C@H]2CCC(=O)NCCCC[C@@H](C(=O)N[C@@H](CC(=O)O)C(=O)N[C@@H](Cc3ccccc3)C(=O)N[C@H](C(=O)N[C@H]3CCCCNC(=O)C[C@@H](C(=O)N[C@H]4CCC(=O)NCCCC[C@@H](C(N)=O)NC(=O)[C@H]([C@@H](C)O)NC(=O)[C@H]([C@@H](C)CC)NC(=O)[C@H](CCCCN)NC4=O)NC(=O)[C@H]([C@@H](C)CC)NC(=O)[C@H](CC(C)C)NC(=O)[C@H](Cc4c[nH]c5ccccc45)NC3=O)[C@@H](C)CC)NC(=O)[C@H](C)NC(=O)[C@H](C)NC(=O)[C@H](CCCCN)NC2=O)NC(=O)[C@@H](Cc2ccccc2)NC1=O [Example 60] (H-H[Aib]D[dA]S[αMePhe(2-F)]SKE[Nle][dF]D[αMeL]LDEKAAKDFIKWLIDEKITK-NH2; lactam 8-12, 16-20, 24-28, 29-33 (inferred); C-terminus assumed)",Emax,[1],102%
same,EC50,[1],0.0158 nM
same,Emax,[2],96.5%
same,EC50,[2],0.158 nM
same,remaining at 0.5 h,[3],89.6%
same,remaining at 0.5 h,[4],100%
same,Emax,[5],102%
same,EC50,[5],0.794 nM
same,remaining at 0.5 h,[6],62.5%
"CCCC[C@@H]1NC(=O)[C@H](CCC(=O)O)NC(=O)[C@@H](NC(=O)[C@H](CO)NC(=O)[C@H](Cc2ccccc2)NC(=O)[C@H](CO)NC(=O)[C@@H](C)NC(=O)[C@H](Cc2nn[nH]n2)NC(=O)C(C)(C)C(=O)NCCc2c[nH]cn2)CCCCNC(=O)C[C@@H](C(=O)N[C@H](C(=O)N[C@@H](CC(C)C)C(=O)N[C@@H](CC(=O)O)C(=O)N[C@H]2CCC(=O)NCCCC[C@@H](C(=O)N[C@@H](CC(=O)O)C(=O)N[C@@H](Cc3ccccc3)C(=O)N[C@H](C(=O)N[C@H]3CCCCNC(=O)C[C@@H](C(=O)N[C@H](C(=O)N[C@H]4CCC(=O)NCCCC[C@@H](C(N)=O)NC(=O)[C@H]([C@@H](C)O)NC(=O)[C@H]([C@@H](C)CC)NC4=O)[C@@H](C)O)NC(=O)[C@H]([C@@H](C)CC)NC(=O)[C@H](CC(C)C)NC(=O)[C@H](Cc4c[nH]c5ccccc45)NC3=O)[C@@H](C)CC)NC(=O)[C@H](C)NC(=O)[C@H](C)NC(=O)[C@H](CCCCN)NC2=O)[C@@H](C)CC)NC(=O)[C@@H](Cc2ccccc2)NC1=O [Example 38] ({Malonyl(2,2-Me2,histaminyl)}-[Ala(1H-tetrazol-5-yl)][dA]SFSKE[Nle][dF]DILDEKAAKDFIKWLIDTEITK-NH2; lactam 6-10, 14-18, 22-26, 28-31 (inferred); C-terminus assumed)",Emax,[1],105%
same,EC50,[1],0.0126 nM
same,Emax,[2],88.8%
same,EC50,[2],0.501 nM
same,remaining at 0.5 h,[3],33.4%
same,remaining at 0.5 h,[4],100%
same,Emax,[5],99%
same,EC50,[5],3.16 nM
same,remaining at 0.5 h,[6],61.3%
"CCCC[C@@H]1NC(=O)[C@H](CCC(=O)O)NC(=O)[C@@H](NC(=O)[C@H](CO)NC(=O)[C@](C)(Cc2ccccc2F)NC(=O)[C@H](CO)NC(=O)[C@@H](C)NC(=O)[C@H](CC(=O)O)NC(=O)C(C)(C)NC(=O)[C@@H](N)Cc2c[nH]cn2)CCCCNC(=O)C[C@@H](C(=O)N[C@H](C(=O)N[C@@H](CC(C)C)C(=O)N[C@@H](CC(=O)O)C(=O)N[C@H]2CCC(=O)NCCCC[C@@H](C(=O)N[C@@H](CC(=O)O)C(=O)N[C@@H](Cc3ccccc3)C(=O)N[C@H](C(=O)N[C@H]3CCCCNC(=O)C[C@@H](C(=O)N[C@H]4CCC(=O)NCCCC[C@@H](C(N)=O)NC(=O)[C@H]([C@@H](C)O)NC(=O)[C@H]([C@@H](C)CC)NC(=O)[C@H](CCCCN)NC4=O)NC(=O)[C@H]([C@@H](C)CC)NC(=O)[C@H](CC(C)C)NC(=O)[C@H](Cc4c[nH]c5ccccc45)NC3=O)[C@@H](C)CC)NC(=O)[C@H](C)NC(=O)[C@H](C)NC(=O)[C@H](CCCCN)NC2=O)[C@@H](C)CC)NC(=O)[C@@H](Cc2ccccc2)NC1=O [Example 59] (H-H[Aib]D[dA]S[αMePhe(2-F)]SKE[Nle][dF]DILDEKAAKDFIKWLIDEKITK-NH2; lactam 8-12, 16-20, 24-28, 29-33 (inferred); C-terminus assumed)",Emax,[1],103%
same,EC50,[1],0.02 nM
same,Emax,[2],95.2%
same,EC50,[2],0.2 nM
same,remaining at 0.5 h,[3],63.6%
same,remaining at 0.5 h,[4],100%
same,Emax,[5],103%
same,EC50,[5],0.501 nM
same,remaining at 0.5 h,[6],61.9%

# Source: patent US20240270809A1, “ORAL GLP RECEPTOR AGONISTS” (priority 2020, published 2024)
